The values below come from BindingDB's records for doi:10.1021/jm00006a013 (Universit&#224, 1995).

The target of the assay is sigma receptor (Cavia porcellus). Kind of assay: In vitro binding affinity measured on sigma opioid receptor using [3H]DTG as radioligand.
As for `COc1ccc2c(c1)C(CCCN1CCN(c3ccccc3OC)CC1)=CCC2` [1-[3-(7-Methoxy-3,4-dihydro-naphthalen-1-yl)-propyl]-4-(2-methoxy-phenyl)-piperazine], the IC50 – broadly, the concentration that gives 50% inhibition – was determined as 0.228 µM.

As for `COc1ccccc1N1CCN(CC/C=C2\CCCc3c(OC)cccc32)CC1` [1-{3-[5-Methoxy-3,4-dihydro-2H-naphthalen-(1E)-ylidene]-propyl}-4-(2-methoxy-phenyl)-piperazine], the IC50 was 0.0522 µM.

In turn, `COc1ccc2c(c1)C(SCCN1CCN(c3ccccc3OC)CC1)CCC2` (stereo unspecified) [1-(2-Methoxy-phenyl)-4-[2-(7-methoxy-1,2,3,4-tetrahydro-naphthalen-1-ylsulfanyl)-ethyl]-piperazine] gave an IC50 of 0.138 µM. `COc1ccc2c(c1)C(CCCN1CCN(c3ccccn3)CC1)CCC2` (stereo unspecified) [1-[3-(7-Methoxy-1,2,3,4-tetrahydro-naphthalen-1-yl)-propyl]-4-pyridin-2-yl-piperazine] gave an IC50 of 0.125 µM.

Compound `COc1ccc2c(c1)C(CCCN1CCN(c3ccccn3)CC1)=CCC2` [1-[3-(7-Methoxy-3,4-dihydro-naphthalen-1-yl)-propyl]-4-pyridin-2-yl-piperazine] came in with an IC50 of 0.246 µM. `COc1ccccc1N1CCN(CC/C=C2\CCCc3ccccc32)CC1` [1-{3-[3,4-Dihydro-2H-naphthalen-(1E)-ylidene]-propyl}-4-(2-methoxy-phenyl)-piperazine] had an IC50 of 0.055 µM.
